From PubChem BioAssay AID248 (DTP/NCI, 2004)
Several values for one entry are separate records, joined by “and”; a condition that tells them apart may be missing. Equal entries are not always repeated. Inconclusive results and toxic doses are left out.

Test system: L1210 leukemia ip in BDF1 mice, survival T/C
Experiment: NCI In Vivo Anticancer Drug Screen. Data for tumor model L1210 Leukemia (intraperitoneal) in B6D2F1 (BDF1) mice
Conditions: higher = longer survival
Summary of the method: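 Value reflects the ratio of survival in compound-treated mice to survival in vehicle-treated controls, with both groups carrying the same transplanted tumor.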

[1] = endpoint: mean survival time, dose: 50.0 mg/kg/injection, schedule: Q01DX009 (ip), vehicle: Klucel (hydroxypropylcellulose) (HPC)
[2] = endpoint: mean survival time, dose: 100.0 mg/kg/injection, schedule: Q01DX009 (ip), vehicle: Klucel (hydroxypropylcellulose) (HPC)
[3] = endpoint: mean survival time, dose: 100.0 mg/kg/injection, schedule: Q04DX003 (ip), vehicle: saline
[4] = endpoint: mean survival time, dose: 200.0 mg/kg/injection, schedule: Q01DX009 (ip), vehicle: Klucel (hydroxypropylcellulose) (HPC)
[5] = endpoint: mean survival time, dose: 200.0 mg/kg/injection, schedule: Q04DX003 (ip), vehicle: saline
[6] = endpoint: mean survival time, dose: 400.0 mg/kg/injection, schedule: Q04DX003 (ip), vehicle: saline
[7] = endpoint: mean survival time, dose: 100.0 mg/kg/injection, schedule: Q01DX001 (ip), vehicle: saline
[8] = endpoint: mean survival time, dose: 200.0 mg/kg/injection, schedule: Q01DX001 (ip), vehicle: saline
[9] = endpoint: mean survival time, dose: 400.0 mg/kg/injection, schedule: Q01DX001 (ip), vehicle: saline
[10] = endpoint: mean survival time, dose: 100.0 mg/kg/injection, schedule: Q01DX009 (ip), vehicle: saline with Tween-80
[11] = endpoint: mean survival time, dose: 200.0 mg/kg/injection, schedule: Q01DX009 (ip), vehicle: saline with Tween-80
[12] = endpoint: mean survival time, dose: 100.0 mg/kg/injection, schedule: Q04DX003 (ip), vehicle: saline with Tween-80
[13] = endpoint: mean survival time, dose: 200.0 mg/kg/injection, schedule: Q04DX003 (ip), vehicle: saline with Tween-80
[14] = endpoint: mean survival time, dose: 400.0 mg/kg/injection, schedule: Q04DX003 (ip), vehicle: saline with Tween-80
[15] = endpoint: mean survival time, dose: 400.0 mg/kg/injection, schedule: Q01DX009 (ip), vehicle: saline with Tween-80

COc1ccc(C2c3cc4c(c(OC)c3CC3OCC(=O)C32)OCO4)cc1OC (stereo not given)
T/C (endpoint: mean survival time, dose: 12.5 mg/kg/injection, schedule: Q01DX009 (ip), vehicle: Klucel (hydroxypropylcellulose) (HPC)): 110 % of control | T/C (endpoint: mean survival time, dose: 25.0 mg/kg/injection, schedule: Q01DX009 (ip), vehicle: Klucel (hydroxypropylcellulose) (HPC)): 110 % of control | T/C [1]: 123 % of control | T/C (endpoint: mean survival time, dose: 50.0 mg/kg/injection, schedule: Q04DX003 (ip), vehicle: saline): 110 % of control | T/C (endpoint: mean survival time, dose: 75.0 mg/kg/injection, schedule: Q01DX001 (ip), vehicle: Klucel (hydroxypropylcellulose) (HPC)): 106 % of control | T/C [2]: 121 % of control | T/C [3]: 116 % of control | T/C (endpoint: mean survival time, dose: 150.0 mg/kg/injection, schedule: Q01DX001 (ip), vehicle: Klucel (hydroxypropylcellulose) (HPC)): 112 % of control | T/C [4]: 101 % of control | T/C [5]: 116 % of control | T/C (endpoint: mean survival time, dose: 300.0 mg/kg/injection, schedule: Q01DX001 (ip), vehicle: Klucel (hydroxypropylcellulose) (HPC)): 104 % of control | T/C [6]: 110 % of control | T/C (endpoint: mean survival time, dose: 600.0 mg/kg/injection, schedule: Q01DX001 (ip), vehicle: Klucel (hydroxypropylcellulose) (HPC)): 115 % of control | T/C (endpoint: mean survival time, dose: 800.0 mg/kg/injection, schedule: Q04DX003 (ip), vehicle: saline): 118 % of control | T/C (endpoint: mean survival time, dose: 1200.0 mg/kg/injection, schedule: Q01DX001 (ip), vehicle: Klucel (hydroxypropylcellulose) (HPC)): 118 % of control | T/C (endpoint: median survival time, dose: 12.5 mg/kg/injection, schedule: Q01DX009 (ip), vehicle: Klucel (hydroxypropylcellulose) (HPC)): 105 % of control | T/C (endpoint: median survival time, dose: 25.0 mg/kg/injection, schedule: Q01DX009 (ip), vehicle: Klucel (hydroxypropylcellulose) (HPC)): 100 % of control | T/C (endpoint: median survival time, dose: 50.0 mg/kg/injection, schedule: Q01DX009 (ip), vehicle: Klucel (hydroxypropylcellulose) (HPC)): 111 % of control | T/C (endpoint: median survival time, dose: 100.0 mg/kg/injection, schedule: Q01DX009 (ip), vehicle: Klucel (hydroxypropylcellulose) (HPC)): 116 % of control

NC(=O)C1C2CC3OC(=O)C1C3C2 (stereo not given)
T/C [3]: 93 % of control and 103 % of control | T/C [5]: 102 % of control and 100 % of control | T/C [6]: 96 % of control and 88 % of control

O=[N+]([O-])c1ccc(N=C(Cl)c2cc(N3CCOCC3)ccn2)cc1
T/C [7]: 94 % of control | T/C [8]: 94 % of control | T/C [9]: 95 % of control

CC(=O)c1sc2sc(C(C)=O)c(NC(=S)Nc3ccccc3Cl)c2c1NC(=S)Nc1ccccc1Cl
T/C [2]: 97 % of control | T/C [4]: 96 % of control | T/C (endpoint: mean survival time, dose: 400.0 mg/kg/injection, schedule: Q01DX009 (ip), vehicle: Klucel (hydroxypropylcellulose) (HPC)): 94 % of control

CN(Cc1cnc2nc(N)nc(N)c2n1)c1ccc(C(=O)NC(CCC(=O)O)C(=O)O)c(Cl)c1 (stereo not given)
T/C (endpoint: mean survival time, dose: 25.0 mg/kg/injection, schedule: Q01DX009 (ip), vehicle: sodium bicarbonate): 154 % of control

CC(=O)OC1CCCCC1N (stereo not given)
T/C (endpoint: mean survival time, dose: 100.0 mg/kg/injection, schedule: Q04DX002 (ip), vehicle: saline): 100 % of control and 91 % of control | T/C (endpoint: mean survival time, dose: 200.0 mg/kg/injection, schedule: Q04DX002 (ip), vehicle: saline): 92 % of control and 103 % of control | T/C (endpoint: mean survival time, dose: 400.0 mg/kg/injection, schedule: Q04DX002 (ip), vehicle: saline): 103 % of control and 114 % of control

CC(C)C1=CC2=CCC3C(C)(CN)CCCC3(C)C2CC1CCN (stereo not given)
T/C (endpoint: mean survival time, dose: 1.25 mg/kg/injection, schedule: Q04DX003 (ip), vehicle: saline): 100 % of control | T/C (endpoint: mean survival time, dose: 2.5 mg/kg/injection, schedule: Q04DX003 (ip), vehicle: saline): 108 % of control | T/C (endpoint: mean survival time, dose: 5.0 mg/kg/injection, schedule: Q04DX003 (ip), vehicle: saline with Tween-80): 96 % of control | T/C (endpoint: mean survival time, dose: 5.0 mg/kg/injection, schedule: Q04DX003 (ip), vehicle: saline): 101 % of control

c1ccc(COc2ccccn2)cc1
T/C [1]: 95 % of control | T/C [2]: 97 % of control | T/C (endpoint: mean survival time, dose: 100.0 mg/kg/injection, schedule: Q04DX003 (ip), vehicle: Klucel (hydroxypropylcellulose) (HPC)): 98 % of control | T/C (endpoint: mean survival time, dose: 200.0 mg/kg/injection, schedule: Q04DX003 (ip), vehicle: Klucel (hydroxypropylcellulose) (HPC)): 98 % of control

NS(=O)(=O)c1nc[nH]c1[N+](=O)[O-]
T/C (endpoint: mean survival time, dose: 100.0 mg/kg/injection, schedule: Q01DX009 (ip), vehicle: acetone): 92 % of control | T/C (endpoint: mean survival time, dose: 200.0 mg/kg/injection, schedule: Q01DX009 (ip), vehicle: acetone): 90 % of control

CCOC(=O)C(C1=NC(C)(C)CC(C)O1)C(C[N+](=O)[O-])c1ccccc1 (stereo not given)
T/C (endpoint: mean survival time, dose: 100.0 mg/kg/injection, schedule: Q01DX001 (ip), vehicle: other): 97 % of control | T/C (endpoint: mean survival time, dose: 200.0 mg/kg/injection, schedule: Q01DX001 (ip), vehicle: other): 97 % of control | T/C (endpoint: mean survival time, dose: 400.0 mg/kg/injection, schedule: Q01DX001 (ip), vehicle: other): 100 % of control

CCN(CC)c1ccc(N=C2C=C(C(=O)Nc3ccc(S(C)(=O)=O)cc3)C(=O)c3ccccc32)c(C)c1
T/C [7]: 92 % of control | T/C [8]: 96 % of control | T/C [9]: 96 % of control

COC(=O)C(CC/C(=N\NC(N)=O)c1ccccc1)C(=O)OC
T/C (endpoint: mean survival time, dose: 50.0 mg/kg/injection, schedule: Q01DX009 (ip), vehicle: saline with Tween-80): 98 % of control | T/C [10]: 98 % of control | T/C [11]: 91 % of control

CCOC1CC2CN(C)C1c1ccccc12 (stereo not given)
T/C [3]: 97 % of control | T/C [5]: 97 % of control | T/C [6]: 101 % of control

Cc1ccc(Nc2cc(C)nc(N)n2)cc1
T/C (endpoint: mean survival time, dose: 25.0 mg/kg/injection, schedule: Q01DX Z (ip), vehicle: methylcellulose (MC)): 90 % of control

O=C1CC(N2CCCCC2)C(=O)N1c1ccccc1 (stereo not given)
T/C (endpoint: mean survival time, dose: 100.0 mg/kg/injection, schedule: Q04DX002 (ip), vehicle: saline with Tween-80): 92 % of control | T/C (endpoint: mean survival time, dose: 200.0 mg/kg/injection, schedule: Q04DX002 (ip), vehicle: saline with Tween-80): 95 % of control

COc1ccc(CC2=NCCN2)cc1
T/C (endpoint: mean survival time, dose: 25.0 mg/kg/injection, schedule: Q04DX003 (ip), vehicle: saline with Tween-80): 91 % of control | T/C (endpoint: mean survival time, dose: 50.0 mg/kg/injection, schedule: Q04DX003 (ip), vehicle: saline with Tween-80): 93 % of control | T/C [12]: 101 % of control and 89 % of control

c1ccc(C(c2ccccc2)[Si](c2ccccc2)(C(c2ccccc2)c2ccccc2)C(c2ccccc2)c2ccccc2)cc1
T/C (endpoint: mean survival time, dose: 25.6 mg/kg/injection, schedule: Q04DX002 (ip), vehicle: saline with Tween-80): 96 % of control | T/C (endpoint: mean survival time, dose: 37.5 mg/kg/injection, schedule: Q01DX009 (ip), vehicle: Klucel (hydroxypropylcellulose) (HPC)): 93 % of control | T/C (endpoint: mean survival time, dose: 64.0 mg/kg/injection, schedule: Q04DX002 (ip), vehicle: saline with Tween-80): 100 % of control | T/C (endpoint: mean survival time, dose: 75.0 mg/kg/injection, schedule: Q01DX009 (ip), vehicle: Klucel (hydroxypropylcellulose) (HPC)): 88 % of control | T/C [12]: 94 % of control | T/C (endpoint: mean survival time, dose: 160.0 mg/kg/injection, schedule: Q04DX002 (ip), vehicle: saline with Tween-80): 93 % of control | T/C [13]: 100 % of control | T/C (endpoint: mean survival time, dose: 400.0 mg/kg/injection, schedule: Q04DX002 (ip), vehicle: saline with Tween-80): 104 % of control | T/C [14]: 94 % of control

Cc1cc(Cl)c(Cl)cc1NC(=O)Nc1cccc(F)c1
T/C [10]: 94 % of control | T/C [11]: 100 % of control | T/C [15]: 94 % of control

O=C1C2C3C=CC(C3)C2C(=O)C2C3C=CC(C3)C12 (stereo not given)
T/C (endpoint: mean survival time, dose: 50.0 mg/kg/injection, schedule: Q01DX001 (ip), vehicle: carboxymethylcellulose (CMC)): 103 % of control | T/C (endpoint: mean survival time, dose: 100.0 mg/kg/injection, schedule: Q01DX001 (ip), vehicle: carboxymethylcellulose (CMC)): 93 % of control | T/C (endpoint: mean survival time, dose: 200.0 mg/kg/injection, schedule: Q01DX001 (ip), vehicle: carboxymethylcellulose (CMC)): 100 % of control | T/C (endpoint: mean survival time, dose: 400.0 mg/kg/injection, schedule: Q01DX001 (ip), vehicle: carboxymethylcellulose (CMC)): 112 % of control

OC1C/C=C/CCCCC1 (stereo not given)
T/C (endpoint: mean survival time, dose: 100.0 mg/kg/injection, schedule: Q04DX002 (ip), vehicle: Klucel (hydroxypropylcellulose) (HPC)): 106 % of control | T/C (endpoint: mean survival time, dose: 200.0 mg/kg/injection, schedule: Q04DX002 (ip), vehicle: Klucel (hydroxypropylcellulose) (HPC)): 100 % of control | T/C (endpoint: mean survival time, dose: 400.0 mg/kg/injection, schedule: Q04DX002 (ip), vehicle: Klucel (hydroxypropylcellulose) (HPC)): 103 % of control

O=C1c2ccccc2C(=Cc2ccccc2)c2ccccc21
T/C [10]: 107 % of control | T/C [12]: 101 % of control | T/C [11]: 107 % of control | T/C [13]: 100 % of control | T/C [15]: 104 % of control | T/C [14]: 92 % of control
